Results as given in paper PMC11191877, “Discovery of new Schiff bases of the disalicylic acid scaffold as DNA gyrase and topoisomerase IV inhibitors endowed with antibacterial properties” (Frontiers in Chemistry, 2024).
Converted amounts (≈) assume the structure as drawn.

Assays:
[1] = tested on: Pseudomonas aeruginosa; test: Modified Kirby-Bauer disc diffusion; type: cell-based; conditions: Pseudomonas aeruginosa (G−)
Method: (§1) The antimicrobial activity of compounds 5a-k was assessed using a modified Kirby-Bauer disc diffusion method ([Alkhaldi et al., 2019]; [Al-Wahaibi et al., 2021b]; [Manso et al., 2021]; [Ecevit et al., 2022]). […] Ciprofloxacin was used as a reference medication. […] Compounds 5f-k had promising antibacterial action against Gram-positive and Gram-negative bacteria, ranging from 75% to 115% of typical ciprofloxacin levels. […]
(§2) incubated at 35-37 °C for 24-48 hours and yeast as Candida albicans (ATCC 7102) incubated at 30 °C for 24-48 hours and, then the diameters of the inhibition zones were measured in millimeters. Standard discs of ciprofloxacin (Antibacterial agent), Fluconazole (Antifungal agent) served as positive controls for antimicrobial activity but filter discs impregnated with 10 µl of solvent (distilled water, chloroform, DMSO) were used as a negative control. Blank paper disks (Schleicher & Schuell, Spain) with a diameter of 8.0 mm were impregnated 10µ of tested concentration of the stock solutions. When a filter paper disc impregnated with a tested chemical is placed on agar the chemical will diffuse from the disc into the agar. This diffusion will place the chemical in the agar only around the disc. The solubility of the chemical and its molecular size will determine the size of the area of chemical infiltration around the disc. If an organism is placed on the agar it will not grow in the area around the disc if it is susceptible to the chemical. This area of no growth around the disc is known as a “Zone of inhibition” or" Clear zone". For the disc diffusion, the zone diameters were measured with slipping calipers of the National Committee for Clinical Laboratory […]
(§3) Agar-based methods such as E-test and disk diffusion can be good alternatives because they are simpler and faster than broth-based methods. […]

[2] = tested on: Bacillus subtilis; test: Modified Kirby-Bauer disc diffusion; type: cell-based; conditions: Bacillus subtilis (G+)
Method: as §1, §2, §3

[3] = tested on: Escherichia Coli; test: Modified Kirby-Bauer disc diffusion; type: cell-based; conditions: Escherichia Coli (G−)
Method: as §1, §2, §3

[4] = tested on: Candida albicans; test: Modified Kirby-Bauer disc diffusion (antifungal); type: cell-based; conditions: Candida albicans (fungi)
Method: (§4) The antimicrobial activity of compounds 5a-k was assessed using a modified Kirby-Bauer disc diffusion method ([Alkhaldi et al., 2019]; [Al-Wahaibi et al., 2021b]; [Manso et al., 2021]; [Ecevit et al., 2022]). […] Ciprofloxacin was used as a reference medication. […] Compounds 5f-k had promising antibacterial action against Gram-positive and Gram-negative bacteria, ranging from 75% to 115% of typical ciprofloxacin levels.
(§5) In addition, the synthesized compounds 5a-k were evaluated for their antifungal activity against A. flavus and C. albicans, with Fluconazole as a reference medication (Table 1). […]
as §2, §3

[5] = tested on: Aspergillus flavus; test: Modified Kirby-Bauer disc diffusion (antifungal); type: cell-based; conditions: Aspergillus flavus (fungi)
Method: as §4, §5
Standard discs of ciprofloxacin (Antibacterial agent), Fluconazole (Antifungal agent) served as positive controls for antimicrobial activity but filter discs impregnated with 10 µl of solvent (distilled water, chloroform, DMSO) were used as a negative control. Blank paper disks (Schleicher & Schuell, Spain) with a diameter of 8.0 mm were impregnated 10µ of tested concentration of the stock solutions. When a filter paper disc impregnated with a tested chemical is placed on agar the chemical will diffuse from the disc into the agar. This diffusion will place the chemical in the agar only around the disc. The solubility of the chemical and its molecular size will determine the size of the area of chemical infiltration around the disc. If an organism is placed on the agar it will not grow in the area around the disc if it is susceptible to the chemical. This area of no growth around the disc is known as a “Zone of inhibition” or" Clear zone". For the disc diffusion, the zone diameters were measured with slipping calipers of the National Committee for Clinical Laboratory […]
as §3

[6] = tested on: Staph. aureus; test: Modified Kirby-Bauer disc diffusion; type: cell-based, Staphylococcus aureus; conditions: for Inhibition zone diameter: Staph. aureus (G+)
Method: as §1, §2, §3

[7] = target: S. aureus topoisomerase IV; conditions: read-out: IC50 S. aureus topoisomerase IV; internal standard value stated in the supplementary method; cited from earlier work
[8] = tested on: E. coli b-Ketoacyl-acyl carrier protein synthase III (ecKAS III); design: method as in Cheng et al., 2010; conditions: ref Cheng et al., 2010; cited from earlier work
[9] = tested on: mycobacterium; design: method as in Abdu-Allah et al., 2017; conditions: nutrition starvation paradigm, 10 μg/mL; ref Abdu-Allah et al., 2017; cited from earlier work
[10] = tested on: M. tuberculosis H37Rv; design: method as in Abdu-Allah et al., 2017; conditions: ref Abdu-Allah et al., 2017; cited from earlier work
[11] = tested on: Gram-positive and Gram-negative bacteria; test: Disc diffusion, activity relative to ciprofloxacin over the bacterial panel; type: cell-based; conditions: Gram-negative strains
Method: as §1
incubated at 35-37 °C for 24-48 hours and yeast as Candida albicans (ATCC 7102) incubated at 30 °C for 24-48 hours and, then the diameters of the inhibition zones were measured in millimeters. Standard discs of ciprofloxacin (Antibacterial agent), Fluconazole (Antifungal agent) served as positive controls for antimicrobial activity but filter discs impregnated with 10 µl of solvent (distilled water, chloroform, DMSO) were used as a negative control. Blank paper disks (Schleicher & Schuell, Spain) with a diameter of 8.0 mm were impregnated 10µ of tested concentration of the stock solutions. When a filter paper disc impregnated with a tested chemical is placed on agar the chemical will diffuse from the disc into the agar. This diffusion will place the chemical in the agar only around the disc. […] For the disc diffusion, the zone diameters were measured with slipping calipers of the National Committee for Clinical Laboratory […]

[12] = tested on: Pseudomonas aeruginosa; test: MIC, twofold serial dilution, 96-well microtiter plate; type: cell-based; conditions: Pseudomonas aeruginosa (G−); read-out: Minimum inhibitory concentration (MIC)
Method: (§6) The antibacterial activity of compounds 5f, 5h, 5i, and 5k were evaluated using a twofold serial dilution method ([Parasa et al., 2011]), with ciprofloxacin as the reference compound. The MIC values for certain compounds were obtained through dose-response experiments. The stated values are based on a minimum of two independent experiments, with three replicates per concentration in each experiment. The experimental details can be found in Appendix A (Supplementary Material). […]
(§7) 4.2.2. Minimum inhibitory concentration assay
(§8) In 96-well microtiter plates and […] of fresh bacterial culture of a single McFarland unit overnight, a double serial dilution of each compound […] in sterile standard saline were prepared to every single source well. Ciprofloxacin antibiotic (5 mg / mL - 1) and normal saline were included as standard reference in each assay. The plates were incubated at 37 0C overnight. As an indicator of bacterial growth, […] of p-iodonitrotetrazolium violet (INT) was added to each well and incubated at 37 0C for 30 […]
(§9) min. MIC values are recorded as the lowest concentration of the extract that completely inhibited bacterial growth that is clear well. The colorless tetrazolidium salt acts as an electron accepter and is reduced to a red colored formazan product by biological activity organisms. Where bacterial growth was inhibited, the solution in the well remained clear after incubation with INT. […]
(§10) SybrGOLD in T10 buffer (10 mM Tris HCl with pH 8.0 and 1 mM EDTA) was added. […]

[13] = tested on: Bacillus subtilis; test: as above; type: cell-based; conditions: Bacillus subtilis (G+); read-out: Minimum inhibitory concentration (MIC)
Method: as §6, §7, §8, §9, §10

[14] = tested on: Staphylococcus aureus; test: as above; type: cell-based; conditions: Staphylococcus aureus (G+); read-out: Minimum inhibitory concentration (MIC)
Method: as §6, §7, §8, §9, §10

[15] = tested on: Escherichia Coli; test: as above; type: cell-based; conditions: Escherichia coli (G−); read-out: Minimum inhibitory concentration (MIC)
Method: as §6, §7, §8, §9, §10

[16] = tested on: E. Coli; design: method as in Shi et al., 2007; conditions: ref Shi et al., 2007; cited from earlier work
[17] = tested on: P. fluorescence; design: method as in Shi et al., 2007; conditions: ref Shi et al., 2007; cited from earlier work
[18] = tested on: B. subtilis; design: method as in Shi et al., 2007; conditions: ref Shi et al., 2007; cited from earlier work
[19] = tested on: DNA methyltransferases (DNMTs); design: method as in Leroy et al., 2019; conditions: ref Leroy et al., 2019; cited from earlier work

Compound | Inhibition zone diameter [1] | Inhibition zone diameter [2] | Inhibition zone diameter [3] | Inhibition zone diameter [4] | Inhibition zone diameter [5] | Inhibition zone diameter [6] | further results
N'-((E)-4-Nitrobenzylidene)-4-(4-(2-((Z)-4-nitrobenzylidene)hydrazine-1-carbonyl)-3-hydroxybenzyl)-2-hydroxybenzohydrazide [Compound 5c] | 25 mm/mg Sample | 26 mm/mg Sample | 27 mm/mg Sample | 11 mm/mg Sample | 0.0 mm/mg Sample | 27 mm/mg Sample | 
CO[C@@H]1[C@@H](OC(N)=O)[C@@H](O)[C@H](Oc2ccc3c(O)c(NC(=O)c4ccc(O)c(CC=C(C)C)c4)c(=O)oc3c2C)OC1(C)C [Novobiocin] |  |  |  |  |  |  | IC50 [7]: 26.7 µM
OC(Cn1cncn1)(Cn1cncn1)c1ccc(F)cc1F [Fluconazole, reference compound] |  |  |  | 40 mm/mg Sample | 40 mm/mg Sample |  | 
N'-((E)-4-Bromobenzylidene)-4-(4-(2-((Z)-4-bromobenzylidene)hydrazine-1-carbonyl)-3-hydroxybenzyl)-2-hydroxybenzohydrazide [Compound 5d] | 26 mm/mg Sample | 28 mm/mg Sample | 30 mm/mg Sample | 10 mm/mg Sample | 0.0 mm/mg Sample | 31 mm/mg Sample | 
CC(CNC(=O)c1ccccc1O)/N=C/c1cc(Cl)cc(Cl)c1O (centres unmarked) [IV] |  |  |  |  |  |  | inhibitory activity against ecKAS III [8]: potent inhibitory activity
O=C(N/N=C1\C(=O)N(Cc2ccc(Cl)cc2)c2ccccc21)c1cc(-n2cc(-c3ccccc3)nn2)ccc1O [III] |  |  |  |  |  |  | reduction of bacterial count [9]: 2.4 logs; MIC [10]: 0.39 µg/mL (≈ 0.71 µM)
N'-((E)-2-Chlorobenzylidene)-4-(4-(2-((Z)-2-chlorobenzylidene)hydrazine-1-carbonyl)-3-hydroxybenzyl)-2-hydroxybenzohydrazide [Compound 5e] | 28 mm/mg Sample | 27 mm/mg Sample | 28 mm/mg Sample | 12 mm/mg Sample | 0.0 mm/mg Sample | 30 mm/mg Sample | 
N'-((E)-3-Chlorobenzylidene)-4-(4-(2-((Z)-3-chlorobenzylidene)hydrazine-1-carbonyl)-3-hydroxybenzyl)-2-hydroxybenzohydrazide [Compound 5g] | 30 mm/mg Sample | 33 mm/mg Sample | 30 mm/mg Sample | 0.0 mm/mg Sample | 0.0 mm/mg Sample | 35 mm/mg Sample | activity of ciprofloxacin [11]: 75%; activity compared to ciprofloxacin ([6]; S. aureus): 88%
O=C(O)c1cn(C2CC2)c2cc(N3CCNCC3)c(F)cc2c1=O [Ciprofloxacin, reference compound] | 40 mm/mg Sample | 40 mm/mg Sample | 40 mm/mg Sample |  |  | 40 mm/mg Sample | MIC [12]: 0.06 µg/mL (≈ 0.181 µM); MIC [13]: 0.01 µg/mL (≈ 0.0302 µM); MIC [14]: 0.03 µg/mL (≈ 0.0905 µM); MIC [15]: 0.06 µg/mL (≈ 0.181 µM)
CC(C/N=C/c1cc(Cl)ccc1O)C/N=C/c1cc(Cl)ccc1O [II] |  |  |  |  |  |  | MIC [16]: 4.9 µg/mL (≈ 13.4 µM); MIC [17]: 3.6 µg/mL (≈ 9.86 µM); MIC [18]: 1.8 µg/mL (≈ 4.93 µM)
O=C(O)c1cc(Cc2ccc(O)c(C(=O)O)c2)ccc1O [NSC 14778, disalicylic acid methylene] |  |  |  |  |  |  | inhibitory activity on DNMTs [19]: within the micromolar range
NC[C@H]1O[C@H](O[C@H]2[C@H](O)[C@@H](O[C@H]3O[C@H](CO)[C@@H](O)[C@H](N)[C@H]3O)[C@H](N)C[C@@H]2N)[C@H](O)[C@@H](O)[C@@H]1O [Kanamycin] |  |  |  |  |  |  | MIC [16]: 3.9 µg/mL (≈ 8.05 µM); MIC [17]: 3.9 µg/mL (≈ 8.05 µM); MIC [18]: 0.39 µg/mL (≈ 0.805 µM)
N'-((E)-4-Methoxybenzylidene)-4-(4-(2-((Z)-4-methoxybenzylidene)hydrazine-1-carbonyl)-3-hydroxybenzyl)-2-hydroxybenzohydrazide [Compound 5j] | 30 mm/mg Sample | 31 mm/mg Sample | 30 mm/mg Sample | 0.0 mm/mg Sample | 0.0 mm/mg Sample | 33 mm/mg Sample | 
N'-((E)-Benzylidene)-4-(4-(2-((Z)-benzylidene)hydrazine-1-carbonyl)-3-hydroxy benzyl)-2-hydroxybenzohydrazide [Compound 5a] | 21 mm/mg Sample | 21 mm/mg Sample | 24 mm/mg Sample | 0.0 mm/mg Sample | 0.0 mm/mg Sample | 25 mm/mg Sample | 
N'-((E)-4-Chlorobenzylidene)-4-(4-(2-((Z)-4-chlorobenzylidene)hydrazine-1-carbonyl)-3-hydroxybenzyl)-2-hydroxybenzohydrazide [Compound 5b] | 26 mm/mg Sample | 26 mm/mg Sample | 26 mm/mg Sample | 7 mm/mg Sample | 0.0 mm/mg Sample | 27 mm/mg Sample | 
